Test results taken from paper PMC6270420, “Antibacterial Activity of Salicylanilide 4-(Trifluoromethyl)benzoates” (Molecules, 2013).
≈ marks a conversion by molar mass, not a printed value. Like-named read-outs stand apart in the source and are kept apart here.

How the values were obtained:
Mtb. 234/2005 = assay: microbe, parasite or virus in culture; type: cell-based; conditions: Mycobacterium tuberculosis, read-out: MIC Mtb. 234/2005
[1] = system: Mycobacterium tuberculosis 331/88 (H37Rv); assay: Antimycobacterial MIC micromethod, Šula's medium; type: cell-based; conditions: read-out: MIC Mtb. 331/88
[2] = system: Mycobacterium avium 330/88; assay: Antimycobacterial MIC micromethod; type: cell-based
Mtb. Praha 131 (XDR-TB) = assay: microbe, parasite or virus in culture; type: cell-based; conditions: Mycobacterium tuberculosis, read-out: MIC Mtb. Praha 131 (XDR-TB)
Mtb. 53/2009 = assay: microbe, parasite or virus in culture; type: cell-based; conditions: Mycobacterium tuberculosis, read-out: MIC Mtb. 53/2009
Mtb. Praha 1 = assay: microbe, parasite or virus in culture; type: cell-based; conditions: Mycobacterium tuberculosis, read-out: MIC Mtb. Praha 1
[3] = system: M. kansasii 6509/96 (clinically isolated strain); assay: Antimycobacterial MIC micromethod; type: cell-based; conditions: Mycobacterium kansasii, read-out: MIC M. kansasii 6509/96
[4] = system: Escherichia coli CCM 4517; assay: Antibacterial microdilution broth method; type: cell-based; conditions: read-out: MIC/IC90 E. coli CCM 4517
Method: (§1) The in vitro antibacterial activity was assayed against eight Gram-positive and Gram-negative strains: Staphylococcus aureus CCM 4516/08, methicillin-resistant Staphylococcus aureus H 5996/08 (MRSA), Staphylococcus epidermidis H 6966/08, Enterococcus sp. J 14365/08; Escherichia coli CCM 4517, Klebsiella pneumoniae D 11750/08, ESBL-positive Klebsiella pneumoniae J 14368/08, and Pseudomonas aeruginosa CCM 1961.
(§2) The microdilution broth method modified according to standard M07-A07 in Mueller-Hinton broth (HiMedia Laboratories, Mumbai, India) adjusted to pH 7.4 (±0.2) was used. The tested compounds were dissolved in DMSO to the final concentrations ranging from […]. Benzylpenicillin (penicillin G) was used as a comparative drug. Bacterial inoculum in sterile water was prepared to match 0.5 McFarland scale ([…]). The minimum inhibitory concentrations were assayed as 90% (IC90) or higher reduction of growth when compared to the control. The determination of results was performed visually and spectrophotometrically (at 540 nm). The values of MICs were determined after 24 and 48 h of incubation in the darkness at 35 °C (±0.1) in a humid atmosphere.

[5] = system: methicillin-resistant Staphylococcus aureus H 5996/08 (MRSA); assay: Antibacterial microdilution broth method; type: cell-based; conditions: read-out: MIC/IC90 MRSA H 5996/08
Method: as §1, §2

[6] = system: Staphylococcus epidermidis H 6966/08; assay: Antibacterial microdilution broth method; type: cell-based; conditions: read-out: MIC/IC90 S. epidermidis H 6966/08
Method: as §1, §2

[7] = system: Enterococcus sp. J 14365/08; assay: Antibacterial microdilution broth method; type: cell-based; conditions: read-out: MIC/IC90 Enterococcus sp. J 14365/08
Method: as §1, §2

[8] = system: Staphylococcus aureus CCM 4516/08; assay: Antibacterial microdilution broth method; type: cell-based; conditions: read-out: MIC/IC90 S. aureus CCM 4516/08
Method: as §1, §2

[9] = system: Gram-positive cocci including MRSA; assay: Antibacterial microdilution, summary for Gram-positive cocci; type: cell-based; conditions: Staphylococcus aureus, read-out: MICs against Gram-positive cocci
Method: as §1, §2

[10] = system: Mycobacterium kansasii 235/80; assay: Antimycobacterial MIC micromethod; type: cell-based; conditions: read-out: MIC M. kansasii 235/80
Mtb. 7357/1988 = assay: microbe, parasite or virus in culture; type: cell-based; conditions: Mycobacterium tuberculosis, read-out: MIC Mtb. 7357/1988
Mtb. 9449/2006 = assay: microbe, parasite or virus in culture; type: cell-based; conditions: Mycobacterium tuberculosis, read-out: MIC Mtb. 9449/2006
[11] = target: T1, mycobacterial isocitrate lyase (ICL1, Rv0467) (Mycobacterium tuberculosis, UniProt P9WKK7); assay: Isocitrate lyase inhibition assay (ICL1); type: biochemical, Mycobacterium tuberculosis H37Rv; conditions: 10 μmol/L; read-out: % ICL inhibition at 10 μmol/L (± standard deviation)
T1 construct: His tag (from pET-28b(+)); made in house; host or cells: E. coli BL21(DE3), pET-28b(+) plasmid
T1 sequence (P9WKK7 1-428): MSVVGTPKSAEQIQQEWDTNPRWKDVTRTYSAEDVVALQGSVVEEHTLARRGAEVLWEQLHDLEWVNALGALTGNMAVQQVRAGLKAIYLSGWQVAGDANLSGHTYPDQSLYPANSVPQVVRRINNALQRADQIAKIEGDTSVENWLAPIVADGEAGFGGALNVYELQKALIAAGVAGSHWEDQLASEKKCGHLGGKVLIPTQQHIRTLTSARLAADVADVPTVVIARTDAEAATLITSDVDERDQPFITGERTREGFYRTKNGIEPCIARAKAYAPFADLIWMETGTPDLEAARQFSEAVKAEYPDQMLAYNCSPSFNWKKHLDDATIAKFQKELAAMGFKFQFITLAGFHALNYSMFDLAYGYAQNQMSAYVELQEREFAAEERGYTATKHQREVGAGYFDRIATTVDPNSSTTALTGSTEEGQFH

Row | SMILES | MIC ([1]; 336 h, 14 d) | MIC ([1]; 504 h, 21 d) | MIC ([2]; 330/88, 336 h, 14 d) | MIC ([2]; 330/88, 504 h, 21 d) | MIC ([3]; 168 h, 7 d) | MIC ([3]; 336 h, 14 d) | MIC ([3]; 504 h, 21 d) | MIC ([4]; CCM4517, 24 h) | MIC ([4]; CCM4517, 48 h) | MIC ([5]; 24 h) | MIC ([5]; 48 h) | MIC ([6]; H6966/08, 24 h) | MIC ([6]; H6966/08, 48 h) | MIC ([7]; SP.J14365/08, 24 h) | MIC ([7]; SP.J14365/08, 48 h) | MIC ([8]; CCM4516, 24 h) | MIC ([8]; CCM4516, 48 h) | MIC [9] | MIC ([10]; 235/80, 168 h, 7 d) | MIC ([10]; 235/80, 336 h, 14 d) | also measured
1 | O=C(Oc1cc(Cl)ccc1C(=O)Nc1cccc(Cl)c1)c1ccc(C(F)(F)F)cc1 [1b] | 4 µM (≈ 1.82 µg/mL) | 4 µM (≈ 1.82 µg/mL) | 8 µM (≈ 3.63 µg/mL) | 8 µM (≈ 3.63 µg/mL) | 2 µM (≈ 0.908 µg/mL) | 8 µM (≈ 3.63 µg/mL) | 8 µM (≈ 3.63 µg/mL) | > 250 µM | > 250 µM | 0.98 µM (≈ 0.445 µg/mL) | 1.95 µM (≈ 0.886 µg/mL) | 0.98 µM (≈ 0.445 µg/mL) | 1.95 µM (≈ 0.886 µg/mL) | 7.81 µM (≈ 3.55 µg/mL) | 15.6 µM (≈ 7.1 µg/mL) | 0.98 µM (≈ 0.445 µg/mL) | 1.95 µM (≈ 0.886 µg/mL) | < 1 µM | 1 µM (≈ 0.454 µg/mL) | 4 µM (≈ 1.82 µg/mL) | MIC (Mtb. 234/2005; 336 h): 8 µM (≈ 3.63 µg/mL); MIC (Mtb. 234/2005; 504 h): 8 µM (≈ 3.63 µg/mL); MIC (Mtb. Praha 131 (XDR-TB); 336 h): 8 µM (≈ 3.63 µg/mL); MIC (Mtb. Praha 131 (XDR-TB); 504 h): 8 µM (≈ 3.63 µg/mL); MIC (Mtb. 53/2009; 336 h): 8 µM (≈ 3.63 µg/mL); MIC (Mtb. 53/2009; 504 h): 8 µM (≈ 3.63 µg/mL); MIC (Mtb. Praha 1; 336 h): 4 µM (≈ 1.82 µg/mL); MIC (Mtb. Praha 1; 504 h): 4 µM (≈ 1.82 µg/mL); MIC ([10]; 235/80, 504 h, 21 d): 4 µM (≈ 1.82 µg/mL); MIC (Mtb. 7357/1988; 336 h): 8 µM (≈ 3.63 µg/mL); MIC (Mtb. 7357/1988; 504 h): 8 µM (≈ 3.63 µg/mL); MIC (Mtb. 9449/2006; 336 h): 4 µM (≈ 1.82 µg/mL); MIC (Mtb. 9449/2006; 504 h): 4 µM (≈ 1.82 µg/mL); inhibition at 10 µM [11]: 13 ± 1.7%
2 | O=C(Oc1ccc(Cl)cc1C(=O)Nc1cccc(F)c1)c1ccc(C(F)(F)F)cc1 [1k] | 8 µM (≈ 3.5 µg/mL) | 8 µM (≈ 3.5 µg/mL) | 16 µM (≈ 7 µg/mL) | 32 µM (≈ 14 µg/mL) | 8 µM (≈ 3.5 µg/mL) | 16 µM (≈ 7 µg/mL) | 16 µM (≈ 7 µg/mL) | > 250 µM | > 250 µM | 0.98 µM (≈ 0.429 µg/mL) | 1.95 µM (≈ 0.854 µg/mL) | 3.9 µM (≈ 1.71 µg/mL) | 3.9 µM (≈ 1.71 µg/mL) | 31.2 µM (≈ 13.7 µg/mL) | > 250 µM | 3.9 µM (≈ 1.71 µg/mL) | 3.9 µM (≈ 1.71 µg/mL) | < 1 µM | 8 µM (≈ 3.5 µg/mL) | 16 µM (≈ 7 µg/mL) | MIC ([10]; 235/80, 504 h, 21 d): 16 µM (≈ 7 µg/mL); inhibition at 10 µM [11]: ≥ 20%
